Paper PMC11882969 (Nature Communications, 2025)
Several values for one entry are separate records, joined by “and”; a condition that tells them apart may be missing. Equal entries are not always repeated. Where two headings read alike, the source gives them in different places.

Legend:
CB1 (rCB1) [1] = molecular target: T1, CB1 (rCB1) (Rattus norvegicus, UniProt P20272); experiment: Radioligand competition binding, [3H]-CP-55,940, rat brain membranes
CB1 (rCB1) [2] = molecular target: T1, CB1 (rCB1); experiment: Single-point radioligand displacement screen; format: binding; details: 10 µM, 1 µM or 300 nM by cell colour (not visible)
hCB1 = hCB1 (Homo sapiens, UniProt P21554); experiment: bioSensAll ebBRET signaling profiling, hCB1; format: cell-based; design: host or cells: HEK293SL cells, transient PEI transfection; details: for Gi1 hCB1 response: Gi1 biosensor; for Gi1 hCB1 / GoB hCB1: single replicate values, FigS6a; for EC50: read-out: EC50 [95% CI]; for Emax: normalized to CP-55,940
Chain of hCB1 (P21554 whole entry): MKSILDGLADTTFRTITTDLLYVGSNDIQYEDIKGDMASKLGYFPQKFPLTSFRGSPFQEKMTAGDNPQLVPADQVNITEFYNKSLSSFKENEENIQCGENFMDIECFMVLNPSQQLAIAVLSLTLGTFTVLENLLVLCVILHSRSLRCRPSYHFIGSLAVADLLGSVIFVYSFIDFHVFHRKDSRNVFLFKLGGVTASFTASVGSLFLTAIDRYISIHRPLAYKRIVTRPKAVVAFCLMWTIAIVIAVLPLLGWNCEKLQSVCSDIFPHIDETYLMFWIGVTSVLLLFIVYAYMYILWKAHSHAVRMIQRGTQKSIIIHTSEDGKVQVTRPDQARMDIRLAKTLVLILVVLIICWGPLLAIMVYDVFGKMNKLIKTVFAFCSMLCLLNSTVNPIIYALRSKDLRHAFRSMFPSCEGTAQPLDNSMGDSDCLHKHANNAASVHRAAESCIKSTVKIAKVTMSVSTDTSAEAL

T1 sequence (P20272 whole entry): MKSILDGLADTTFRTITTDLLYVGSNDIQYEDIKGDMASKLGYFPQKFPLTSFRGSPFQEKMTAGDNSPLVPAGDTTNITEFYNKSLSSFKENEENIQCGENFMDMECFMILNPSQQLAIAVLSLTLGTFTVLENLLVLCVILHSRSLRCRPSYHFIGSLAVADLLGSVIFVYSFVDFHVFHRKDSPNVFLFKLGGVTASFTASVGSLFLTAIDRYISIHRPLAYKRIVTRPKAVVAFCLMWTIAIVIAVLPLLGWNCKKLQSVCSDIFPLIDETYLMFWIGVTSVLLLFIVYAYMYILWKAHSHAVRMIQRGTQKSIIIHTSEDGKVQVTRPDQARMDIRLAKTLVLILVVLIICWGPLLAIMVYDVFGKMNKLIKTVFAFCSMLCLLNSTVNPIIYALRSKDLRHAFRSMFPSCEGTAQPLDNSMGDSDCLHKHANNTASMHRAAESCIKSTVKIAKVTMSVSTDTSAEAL

Cc1cc(C(=O)NC(c2ccccc2)c2ccco2)nn1-c1cccc(C#N)c1 (stereo not drawn) [‘12565]
pKi [95% CI] (CB1 (rCB1) [1]; rCB1): 6.5 [6.3 – 6.7] | Ki (CB1 (rCB1) [1]; read-out: Ki [95% CI], rCB1, [3H]-CP-55,940): 301 nM | % 1H-CP-55,940 displacement (mean) from single point screen (CB1 (rCB1) [2]): 61.12% | Gi1 hCB1 response (hCB1; Log [Compound] (M) -4.22186): 51.3091 | Gi1 hCB1 response (hCB1; Log [Compound] (M) -4.63927): 50.5034 | Gi1 hCB1 response (hCB1; Log [Compound] (M) -5.05788): 44.5052 | Gi1 hCB1 response (hCB1; Log [Compound] (M) -5.47381): 43.9457 | Gi1 hCB1 response (hCB1; Log [Compound] (M) -5.89285): 42.849 | Gi1 hCB1 response (hCB1; Log [Compound] (M) -6.31878): 33.2921 | Gi1 hCB1 response (hCB1; Log [Compound] (M) -6.72585): 46.4524 | Gi1 hCB1 response (hCB1; Log [Compound] (M) -7.14267): 19.6618 | Gi1 hCB1 response (hCB1; Log [Compound] (M) -7.55284): 13.0593 | Gi1 hCB1 response (hCB1; Log [Compound] (M) -8): 11.2688 | Gi1 hCB1 response (hCB1; Log [Compound] (M) -8.22186): -3.794 | Gi1 hCB1 response (hCB1; Log [Compound] (M) -8.39794): -8.2031 | Gi1 hCB1 response (hCB1; Log [Compound] (M) -8.68787): -4.197 | Gi1 hCB1 response (hCB1; Log [Compound] (M) -9.15521): -12.5675 | Gi1 hCB1 response (hCB1; Log [Compound] (M) -9.61989): -10.195 | Gi1 hCB1 response (hCB1; Log [Compound] (M) -10.0969): -5.294 | Gi1 hCB1 response (hCB1; Log [Compound] (M) -10.5529): 14.9617 | Gi1 hCB1 response (hCB1; Log [Compound] (M) -11.0177): -2.317 | Gi1 hCB1 response (hCB1; Log [Compound] (M) -11.4949): 8.247 | Gi1 hCB1 response (hCB1; Log [Compound] (M) -11.9208): -0.5263 | Gi1 hCB1 response (hCB1; Log [Compound] (M) -12.3979): -10.9113 | Gi1 hCB1 response (hCB1; Log [Compound] (M) -12.8861): -6.234 | Gi1 hCB1 response (hCB1; Log [Compound] (M) -13, individual replicate values): 1.98 and -17.5585 | Gi1 hCB1 (hCB1; Log [Compound] (M) -4.22186): 25.3414 | GoB hCB1 (hCB1; Log [Compound] (M) -4.22186): 15.9048 | Gi1 hCB1 (hCB1; Log [Compound] (M) -4.63927): 29.288 | GoB hCB1 (hCB1; Log [Compound] (M) -4.63927): 18.0268 | Gi1 hCB1 (hCB1; Log [Compound] (M) -5.05788): 28.8564 | GoB hCB1 (hCB1; Log [Compound] (M) -5.05788): 28.8528 | Gi1 hCB1 (hCB1; Log [Compound] (M) -5.47381): 27.1451 | GoB hCB1 (hCB1; Log [Compound] (M) -5.47381): 28.2953 | Gi1 hCB1 (hCB1; Log [Compound] (M) -5.89285): 25.0947 | GoB hCB1 (hCB1; Log [Compound] (M) -5.89285): 22.0012 | Gi1 hCB1 (hCB1; Log [Compound] (M) -6.31878): 21.0402 | GoB hCB1 (hCB1; Log [Compound] (M) -6.31878): 26.4251 | Gi1 hCB1 (hCB1; Log [Compound] (M) -6.72585): 17.7873 | GoB hCB1 (hCB1; Log [Compound] (M) -6.72585): 22.6665 | Gi1 hCB1 (hCB1; Log [Compound] (M) -7.14267): 12.2681 | GoB hCB1 (hCB1; Log [Compound] (M) -7.14267): 15.689 | Gi1 hCB1 (hCB1; Log [Compound] (M) -7.55284): 6.888 | GoB hCB1 (hCB1; Log [Compound] (M) -7.55284): 4.557 | Gi1 hCB1 (hCB1; Log [Compound] (M) -8): 2.772 | GoB hCB1 (hCB1; Log [Compound] (M) -8): 1.9857 | Gi1 hCB1 (hCB1; Log [Compound] (M) -8.22186): 1.492 | GoB hCB1 (hCB1; Log [Compound] (M) -8.22186): -4.416 | Gi1 hCB1 (hCB1; Log [Compound] (M) -8.39794): 0.9061 | GoB hCB1 (hCB1; Log [Compound] (M) -8.39794): -0.9096 | Gi1 hCB1 (hCB1; Log [Compound] (M) -8.68787): 1.4611 | GoB hCB1 (hCB1; Log [Compound] (M) -8.68787): -4.902 | Gi1 hCB1 (hCB1; Log [Compound] (M) -9.15521): 0.4436 | GoB hCB1 (hCB1; Log [Compound] (M) -9.15521): -2.744 | Gi1 hCB1 (hCB1; Log [Compound] (M) -9.61989): -1.406 | GoB hCB1 (hCB1; Log [Compound] (M) -9.61989): -3.949 | Gi1 hCB1 (hCB1; Log [Compound] (M) -10.0969): 0.8444 | GoB hCB1 (hCB1; Log [Compound] (M) -10.0969): -5.531 | Gi1 hCB1 (hCB1; Log [Compound] (M) -10.5529): -0.3889 | GoB hCB1 (hCB1; Log [Compound] (M) -10.5529): 0.1334 | Gi1 hCB1 (hCB1; Log [Compound] (M) -11.0177): -1.067 | GoB hCB1 (hCB1; Log [Compound] (M) -11.0177): 0.2053 | Gi1 hCB1 (hCB1; Log [Compound] (M) -11.4949): 0.2894 | GoB hCB1 (hCB1; Log [Compound] (M) -11.4949): -1.809 | Gi1 hCB1 (hCB1; Log [Compound] (M) -11.9208): -1.221 | GoB hCB1 (hCB1; Log [Compound] (M) -11.9208): -1.251 | Gi1 hCB1 (hCB1; Log [Compound] (M) -12.3979): 0.4282 | GoB hCB1 (hCB1; Log [Compound] (M) -12.3979): 0.1334 | Gi1 hCB1 (hCB1; Log [Compound] (M) -12.8861): 1.43 | GoB hCB1 (hCB1; Log [Compound] (M) -12.8861): -3.211 | Gi1 hCB1 (hCB1; Log [Compound] (M) -13): 1.507 and -0.6201 | GoB hCB1 (hCB1; Log [Compound] (M) -13): -3.409 and -2.942 | pEC50 [95% CI] (hCB1; hCB1 Gi1): 7.0 [6.9 – 7.1] | pEC50 [95% CI] (hCB1; hCB1 GoB): 7.4 [7.1 – 7.6] | pEC50 [95% CI] (hCB1; hCB1 Gz): 7.3 [6.9 – 7.7] | EC50 (hCB1; hCB1 Gi1): 104 nM | EC50 (hCB1; hCB1 GoB): 44.8 nM | EC50 (hCB1; hCB1 Gz): 54.6 nM | Emax (hCB1; read-out: Emax [95% CI], hCB1 Gi1): 28% | Emax (hCB1; read-out: Emax [95% CI], hCB1 GoB): 25% | Emax (hCB1; read-out: Emax [95% CI], hCB1 Gz): 51%
